Data from PubChem BioAssay (NCI).
Where “and” joins values, the source holds several entries; their conditions need not be identical. Identical values can stand only once.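 How tested: cells in 96-well plates exposed to compound for 48 hours at five concentrations. GI50 = concentration required for 50% inhibition of growth. TGI is the concentration that stops growth completely.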

Experiments:
Test in all cases: NCI tumour cell line growth inhibition, 48 h
EKVX NSCLC = system: EKVX NSCLC
ACHN renal = system: ACHN renal
HT29 colon = system: HT29 colon
NCI-H226 lung = system: NCI-H226 lung
SW-620 colon = system: SW-620 colon
SN12C renal = system: SN12C renal
CAKI-1 renal = system: CAKI-1 renal
NCI-H522 lung = system: NCI-H522 lung
MALME-3M melanoma = system: MALME-3M melanoma
M19-MEL melanoma = system: M19-MEL melanoma
SF-268 CNS = system: SF-268 CNS
U251 CNS = system: U251 CNS
CCRF-CEM leukemia = system: CCRF-CEM leukemia
HOP-18 NSCLC = system: HOP-18 NSCLC
HOP-62 NSCLC = system: HOP-62 NSCLC
OVCAR-8 ovarian = system: OVCAR-8 ovarian
HOP-92 NSCLC = system: HOP-92 NSCLC
LXFL 529 NSCLC = system: LXFL 529 NSCLC
TK-10 renal = system: TK-10 renal
RPMI-8226 leukemia = system: RPMI-8226 leukemia
RXF 393 renal = system: RXF 393 renal
SK-MEL-2 melanoma = system: SK-MEL-2 melanoma
KM20L2 colon = system: KM20L2 colon
NCI-H460 lung = system: NCI-H460 lung
OVCAR-5 ovarian = system: OVCAR-5 ovarian
SF-295 CNS = system: SF-295 CNS
SF-539 CNS = system: SF-539 CNS
DMS 114 small cell lung = system: DMS 114 small cell lung
UACC-257 melanoma = system: UACC-257 melanoma
HL-60(TB) leukemia = system: HL-60(TB) leukemia
SK-MEL-5 melanoma = system: SK-MEL-5 melanoma
A549 NSCLC = system: A549 NSCLC
LOX IMVI melanoma = system: LOX IMVI melanoma
SNB-19 CNS = system: SNB-19 CNS
IGROV1 ovarian = system: IGROV1 ovarian
786-0 renal = system: 786-0 renal
DMS 273 small cell lung = system: DMS 273 small cell lung
SNB-78 CNS = system: SNB-78 CNS
MOLT-4 leukemia = system: MOLT-4 leukemia
XF 498 CNS = system: XF 498 CNS
RXF-631 renal = system: RXF-631 renal
SK-OV-3 ovarian = system: SK-OV-3 ovarian
DLD-1 colon = system: DLD-1 colon
COLO 205 colon = system: COLO 205 colon
UO-31 renal = system: UO-31 renal
SK-MEL-28 melanoma = system: SK-MEL-28 melanoma
K-562 leukemia = system: K-562 leukemia
NCI-H23 lung = system: NCI-H23 lung
HCT-15 colon = system: HCT-15 colon
A498 renal = system: A498 renal
HCT-116 colon = system: HCT-116 colon
HCC-2998 colon = system: HCC-2998 colon
M14 melanoma = system: M14 melanoma
KM12 colon = system: KM12 colon
SNB-75 CNS = system: SNB-75 CNS
SR leukemia = system: SR leukemia
UACC-62 melanoma = system: UACC-62 melanoma
OVCAR-3 ovarian = system: OVCAR-3 ovarian
P388/ADR leukemia = system: P388/ADR leukemia
P388 leukemia = system: P388 leukemia
SN12K1 renal = system: SN12K1 renal
BT-549 breast = system: BT-549 breast

Work on `COc1ccc(-c2[nH]c3ccccc3c2CCNS(=O)(=O)c2ccc(C)cc2)cc1` yielded a TGI (EKVX NSCLC) of over 10000 nM, a TGI (ACHN renal) of over 10000 nM and a TGI (HT29 colon) of over 10000 nM. It also gave a TGI (NCI-H226 lung) of over 10000 nM, a TGI (SW-620 colon) of over 10000 nM and a TGI (SN12C renal) of over 10000 nM. It also gave a TGI (CAKI-1 renal) of over 10000 nM, a TGI (NCI-H522 lung) of over 10000 nM and a TGI (MALME-3M melanoma) of over 10000 nM. It also gave a TGI (M19-MEL melanoma) of over 10000 nM, a TGI (SF-268 CNS) of over 10000 nM and a TGI (U251 CNS) of over 10000 nM. It also gave a TGI (CCRF-CEM leukemia) of over 10000 nM, a TGI (HOP-18 NSCLC) of over 10000 nM and a TGI (HOP-62 NSCLC) of over 10000 nM. The TGI (OVCAR-8 ovarian) was over 10000 nM, the TGI (HOP-92 NSCLC) was over 10000 nM and the TGI (LXFL 529 NSCLC) was over 10000 nM. The TGI (TK-10 renal) was over 10000 nM, the TGI (RPMI-8226 leukemia) was over 10000 nM and the TGI (RXF 393 renal) was over 10000 nM. The TGI (SK-MEL-2 melanoma) was over 10000 nM, the TGI (KM20L2 colon) was over 10000 nM and the TGI (NCI-H460 lung) was over 10000 nM. It also gave a TGI (OVCAR-5 ovarian) of over 10000 nM, a TGI (SF-295 CNS) of over 10000 nM and a TGI (SF-539 CNS) of over 10000 nM. It also gave a TGI (DMS 114 small cell lung) of over 10000 nM, a TGI (UACC-257 melanoma) of over 10000 nM and a TGI (HL-60(TB) leukemia) of over 10000 nM. It also gave a TGI (SK-MEL-5 melanoma) of over 10000 nM, a TGI (A549 NSCLC) of over 10000 nM and a TGI (LOX IMVI melanoma) of over 10000 nM. The TGI (SNB-19 CNS) was over 10000 nM, the TGI (IGROV1 ovarian) was over 10000 nM and the TGI (786-0 renal) was over 10000 nM. It also gave a TGI (DMS 273 small cell lung) of over 10000 nM, a TGI (SNB-78 CNS) of over 10000 nM and a TGI (MOLT-4 leukemia) of over 10000 nM. For the same compound, the TGI (XF 498 CNS) was over 10000 nM, the TGI (RXF-631 renal) was over 10000 nM and the TGI (SK-OV-3 ovarian) was over 10000 nM. For the same compound, the TGI (DLD-1 colon) was over 10000 nM, the TGI (COLO 205 colon) was 4030 nM and the TGI (UO-31 renal) was over 10000 nM. The TGI (SK-MEL-28 melanoma) was over 10000 nM, the TGI (K-562 leukemia) was over 10000 nM and the TGI (NCI-H23 lung) was over 10000 nM. For the same compound, the TGI (HCT-15 colon) was over 10000 nM, the TGI (A498 renal) was over 10000 nM and the TGI (HCT-116 colon) was over 10000 nM. The TGI (HCC-2998 colon) was over 10000 nM, the TGI (M14 melanoma) was over 10000 nM and the TGI (KM12 colon) was over 10000 nM. The TGI (SNB-75 CNS) was over 10000 nM, the TGI (SR leukemia) was over 10000 nM and the TGI (UACC-62 melanoma) was over 10000 nM. For the same compound, the TGI (OVCAR-3 ovarian) was over 10000 nM.

For `COc1ccc(CC2C(=O)NC(C)C(=O)N(C)C3C(=O)N(C)C(Cc4ccc(O)c(c4)Oc4ccc(cc4)C3O)C(=O)NC(C)C(=O)NC(C)C(=O)N2C)cc1` (configuration not stated), the GI50 (NCI-H226 lung) was 12.5 nM, the TGI (NCI-H226 lung) was 23.8 nM and 25.7 nM and the TGI (P388/ADR leukemia) was 8520 nM and 12700 nM. The GI50 (M19-MEL melanoma) was 7.08 nM, the TGI (M19-MEL melanoma) was 130 nM and 54.3 nM and the GI50 (HOP-18 NSCLC) was 18.4 nM. For the same compound, the TGI (HOP-18 NSCLC) was 43.5 nM and 40.1 nM, the GI50 (HOP-92 NSCLC) was 3.03 nM and the TGI (HOP-92 NSCLC) was 28.3 nM and 91.8 nM and 26.9 nM. For the same compound, the TGI (KM20L2 colon) was 350 nM and 471 nM, the GI50 (P388 leukemia) was 14.9 nM and the TGI (P388 leukemia) was 79.2 nM and 175 nM. For the same compound, the GI50 (DMS 114 small cell lung) was 12.8 nM, the TGI (DMS 114 small cell lung) was 20.6 nM and 42.8 nM and the GI50 (UACC-257 melanoma) was 16 nM. The TGI (UACC-257 melanoma) was 66.3 nM and 32 nM, the GI50 (SN12K1 renal) was 13.5 nM and the TGI (SN12K1 renal) was 32.1 nM and 34.2 nM. For the same compound, the GI50 (DMS 273 small cell lung) was 21.5 nM, the TGI (DMS 273 small cell lung) was 117 nM and 52.2 nM and the GI50 (SNB-78 CNS) was 12.5 nM. The TGI (SNB-78 CNS) was 41.1 nM and 26.4 nM, the GI50 (XF 498 CNS) was 2.38 nM and the TGI (XF 498 CNS) was 17.9 nM and 31.3 nM. The GI50 (DLD-1 colon) was 40.9 nM, the TGI (DLD-1 colon) was 3450 nM and 581 nM and the GI50 (NCI-H23 lung) was 7.11 nM. The TGI (NCI-H23 lung) was 55.7 nM and 34.1 nM and the TGI (BT-549 breast) was 10 nM.
